Experimental data taken from US12239645B2, “Targeted dosing for the treatment of complement mediated disorders” (Achillion Pharmaceuticals, Inc., priority 2018, dated 2025).
≈ marks a conversion by molar mass, not a printed value.

Assays:
[1] = Compound 2 administered to humans (diurnal metabolic pattern); type: in vivo, human
Source text: This could not have been predicted prior to human administration of the drug.

[2] = tested on: complement alternative pathway (AP) activity; assay: MAD study: ex vivo serum AP hemolysis activity and PK-PD analysis; type: in vivo, human; conditions: Homo sapiens; sigmoidal model, multiple ascending dose, ex-vivo AP hemolysis, FIG. 12; read-out: modeled IC90 drug plasma concentration (90% inhibition level)
Experimental: Ex vivo serum AP hemolysis assays were conducted in 96-well microtiter plates divided into two parts, one for hemolysis and the other for serum background color subtraction. Briefly, a suspension of rabbit red blood cells (RBCs) was centrifuged at 800×g at 4° C. for 3 minutes and the supernatant was removed to get rid of the RBC debris. The RBC cell pellet was re-suspended gently with pre-chilled gelatin veronal buffer (GVB0) containing 10 mM MgEGTA to a density of 5×10^8 cells/mL. Other controls including buffer, spontaneous rabbit RBC lysis, 100% RBC lysis (in water), and normal serum control were set up alongside the test samples as well. Serum was placed in a 37° C. water-bath until mostly thawed and immediately transferred to ice bath. 20% serum was prepared with GVB0-MgEGTA buffer and kept at ice bath before testing. Reactions were carried out in a 96 well plate by mixing 50 μl of 20% serum with equal volume of GVB0-MgEGTA buffer and then quickly adding 20 μl of RBC suspension. The plate was shaken on a microtiter plate shaker for 5 seconds and then incubated at 37° C. for 30 minutes. Halfway during the incubation period, the plate was shaken for another 5 seconds as described above. At the end of the incubation, the plate was centrifuged at 800×g at 4° C. for 3 minutes to pellet the un-lysed rabbit RBCs. 80 μl of supernatant was removed carefully from all wells and transferred to a clear flat-bottom microtiter plate for the measurement of optical absorbance at 405 nm (A405) in a Molecular Devices Spectramax Plus plate reader. AP hemolysis in each well was calculated relative to the activity of the NHS reference sample formulas as follows: Hemolysis (%)=((Hm−Bk)−(Sp−Bf))/((NH−BkNH)−(Sp−Bf))×100%
where Hm=A405 in the hemolysis well, Bk=A405 in the corresponding background well, Sp=mean A405 in the spontaneous hemolysis wells, Bf=mean A405 in the buffer alone wells, NH=mean A405 in the reference NHS wells, and BkNH=mean A405 in the corresponding background wells.
The PK-PD relationship was evaluated using time-matched plasma Compound 1 concentrations and serum AP inhibition values by non-linear regression with GraphPad Prism (La Jolla, CA) using the following two models: • 1. The simple Emax model to determine the 50% effective concentration (EC50): Y=E0+Emax×X/(EC50+X) where X=plasma Compound 1 concentration, Y=percent inhibition in the corresponding serum sample, E0=0% inhibition (pre-dose AP activity), and Emax=100% inhibition. • 2. The four-parameter sigmoidal model to determine EC50 and the 90% effective concentration (EC90): Y=E0+(Emax−E0)/(1+10^((Log EC50−X)×HillSlope)) where X, Y, E0, and Emax are defined as above (Emax model) and HillSlope=the slope factor or Hill slope. Pharmacodynamic and Pharmacokinetic Results AP Activity Measured with AP Hemolysis
A multiple ascending dose (MAD) study of Compound 1 with two additional single-dose cohorts was also completed. […] Secondary objectives included evaluation of the pharmacokinetic (PK) profile and the relationship between Compound 1 PK and pharmacodynamic (PD) characteristics, that is, the inhibition of complement alternative pathway (AP) activity (PK/PD). In the MAD study, multiple-dose pharmacokinetics and pharmacodynamics of Compound 1 were evaluated in four dose groups administered Compound 1 (40, 80, 120 and 200 mg BID) in the fasted state for 14-days (Table 3). Eight subjects received active drug in each group; eight subjects received placebo in the first dose group (40 mg) and two subjects received placebo in each of the other three dose groups. Two additional cohorts were administered Compound 1 at single doses of 240 mg (fasted subjects) and 120 mg (fed subjects) (Table 3). The two single-dose cohorts each comprised six subjects receiving active drug and two subjects receiving placebo. […]

Row | Compound | diurnal metabolic pattern [1] | IC90 [2]
1 | CC(=O)c1nn(CC(=O)N2C[C@H](F)C[C@H]2C(=O)Nc2cccc(Br)n2)c2ccc(-c3cnc(C)nc3)cc12 [Compound 2, (2S,4R)-1-(2-(3-acetyl-5-(2-methylpyrimidin-5-yl)-1H-indazol-1-yl)acetyl)-N-(6-bromopyridin-2-yl)-4-fluoropyrrolidine-2-carboxamide] | does not exhibit a diurnal metabolic pattern | –
2 | CC(=O)c1nn(CC(=O)N2C[C@H](F)C[C@H]2C(=O)Nc2cccc(Br)n2)c2ccc(-c3cnc(C)nc3)cc12 [Danicopan, reference compound] | – | 0.235 µg/mL (≈ 0.405 µM)
